{"source": "patent US6962941B2", "about": "“Tryptase inhibitors” (Altana Pharma AG, priority 2001, dated 2005)", "biological_target": "human tryptase", "assay": "Inhibition of human tryptase (apparent dissociation constant, tos-Gly-Pro-Arg-pNA cleavage)", "format": "biochemical", "settings": "pKiapp = -log Kiapp (mol/l), in the presence of substrate, heparin 0.1-50 μg/ml", "excerpt": "The documented pathophysiological effects of mast cell tryptase are brought about directly by the enzymatic activity of the protease. Accordingly, they are reduced or blocked by inhibitors which inhibit the enzymatic activity of tryptase. A suitable measure of the affinity of a reversible inhibitor for the target protease is the equilibrium dissociation constant Ki of the enzyme/inhibitor complex. This value of Ki can be determined via the influence of the inhibitor on the tryptase-induced cleavage of a chromogenic peptide-p-nitroanilide substrate or of a fluorogenic peptide-aminomethylcoumarin substrate.\nThe dissociation constants for the tryptase/inhibitor complexes are determined under equilibrium conditions in accordance with the general proposals of Bieth (Bieth J. G., Pathophysiological Interpretation of kinetic constants of protease inhibitors, Bull. Europ. Physiopath. Resp. 16:183-195, 1980) and the methods of Sommerhoff et al. (Sommerhoff C. P. et al., A Kazal-type inhibitor of human mast cell tryptase: Isolation from the medical leech Hirudo medicinalis, characterization, and sequence analysis, Biol. Chem. Hoppe-Seyler 375: 685-694, 1994).\nHuman tryptase is prepared pure from lung tissue or is prepared by recombination; the specific activity of the protease which has been determined by titration is normally more than 85% of the theoretical value. […]", "data": [{"smiles": "COC(=O)C1CC(NC(=O)OCC#CCOC(=O)NC2CC(C(=O)OC)N(C(=O)CCc3cccc(CN)c3)C2)CN1C(=O)CCc1cccc(CN)c1.Cl.Cl", "note": "(stereo not shown) [Compound 1, 1,4-Bis-{N-[3-(3-aminomethylphenylproplonyl)-2-methoxycarbonylpyrrolidin-4-yl]aminocarbonyloxy}-2-butyne dihydrochloride]", "values": [{"measurement": "pKiapp", "value": 8.35}]}]}
